Results as given in US9617283B2, “Bicyclic heterocycle compounds and their uses in therapy” (ASTEX THERAPEUTICS LIMITED, priority 2012, dated 2017).
Structures can show the parent of a compound that is named as a salt. Where two headings read alike, the source gives them in different places.

Legend:
[1] = tested on: EVSA-T (human breast carcinoma); assay: Anti-proliferative activity, Alamar Blue assay, EVSA-T; assay type: cell-based
[2] = target: T1, BIR3 domain of human XIAP (residues 252-350) (Homo sapiens, UniProt P98170); assay: XIAP in vitro competitive displacement binding assay (fluorescence polarization); details: 1 h, percent inhibition (PI) at 0.04 μM; read-out: Xiap IC50 or PI μM
T1 construct: BIR3 domain of human XIAP (residues 252-350); His-tag (cleaved yes); made in house; host or cells: Escherichia coli

[3] = Homo sapiens, EVSA-T, 72 h, EVSA-T cell line, 72 hours, Alamar Blue; read-out: EVSA-T prolif
[4] = Homo sapiens, EVSA-T; read-out: EC50 in EVSA-T cell line assays
[5] = EVSA-T cell line, 72 hours, Alamar Blue; dihydrochloride; read-out: EVSA-T prolif
[6] = Homo sapiens, EVSA-T, read-out: EC50 in EVSA-T cell line assays

T1 sequence (P98170 252-350): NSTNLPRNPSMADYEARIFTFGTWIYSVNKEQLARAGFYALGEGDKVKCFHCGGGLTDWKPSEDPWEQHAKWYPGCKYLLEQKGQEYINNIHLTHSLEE

| Structure (SMILES) | EC50 [1, 3] | EC50 [1, 4] | inhibition at 0.04 µM [2] | EC50 [1, 5] | EC50 [1, 6] | EVSA-T prolif μM ([1]; EVSA-T cell line, % at 0.001 μM) |
| --- | --- | --- | --- | --- | --- | --- |
| C[C@@H]1CN(CC(=O)N2CC(C)(C)c3cnc(Cc4ccc(F)cc4)cc32)[C@@H](CN2C[C@H](C)OCC2=O)CN1 (single isomer, unassigned) [Example 18, (6R or 6S)-4-{[(2R,5R)-1-(2-{6-[(4-Fluorophenyl)methyl]-3,3-dimethyl-1H,2H,3H-pyrrolo[3,2-c]pyridin-1-yl}-2-oxoethyl)-5-methylpiperazin-2-yl]methyl}-6-methylmorpholin-3-one L-lactate] | 3.5 nM | < 1000 nM | 70% |  |  |  |
| C[C@@H]1CN(CC(=O)N2CC(C)(C)c3ncc(Cc4ccc(F)cc4F)cc32)[C@@H](CN2C[C@H](C)OCC2=O)CN1 (single isomer, unassigned) [Example 23, (6R or 6S)-4-{[(2R,5R)-1-(2-{6-[(2,4-Difluorophenyl)methyl]-3,3-dimethyl-1H,2H,3H-pyrrolo[3,2-b]pyridin-1-yl}-2-oxoethyl)-5-methylpiperazin-2-yl]methyl}-6-methylmorpholin-3-one, dihydrochloride] | 2.8 nM | < 1000 nM | 64% |  |  |  |
| CCC1CN(C[C@H]2CN[C@H](C)CN2CC(=O)N2CC(C)(C)c3cnc(Cc4ccc(F)cc4F)cc32)C(=O)CO1 (single isomer, unassigned) [Example 80, 4-{[(2R,5R)-1-(2-{6-[(2,4-Difluorophenyl)methyl]-3,3-dimethyl-1H,2H,3H-pyrrolo[3,2-c]pyridin-1-yl}-2-oxoethyl)-5-methylpiperazin-2-yl]methyl}-(R or S)-6-ethylmorpholin-3-one dihydrochloride] | 1.8 nM | < 1000 nM | 46% |  |  |  |
| CCCC(O)c1cnc2c(c1)N(C(=O)CN1C[C@@H](C)NC[C@@H]1CN1Cc3ccccc3C1=O)CC2(C)C (single isomer, unassigned) [Example 90, dihydrochloride] |  | < 1000 nM | 54% | 13 nM |  |  |
| CCC1CN(C[C@H]2CN[C@H](C)CN2CC(=O)N2CC(C)(C)c3ncc([C@@H](O)c4ccc(F)cc4)cc32)C(=O)CO1 (single isomer, unassigned) [Example 110, (R or S)-6-ethyl-4-{[(2R,5R)-1-(2-{6-[(S)-(4-Fluorophenyl)(hydroxy)methyl]-3,3-dimethyl-1H,2H,3H-pyrrolo[3,2-b]pyridin-1-yl}-2-oxoethyl)-5-methylpiperazin-2-yl]methyl}morpholin-3-one dihydrochloride] |  |  | 48% | 290 nM | < 1000 nM |  |
| C[C@@H]1CN(CC(=O)N2CC(C)(C)c3ncc(Cc4ccc(F)cc4)cc32)[C@@H](CN2CC(C)(C)CC2=O)CN1 [Example 1, 1-{[(2R,5R)-1-(2-{6-[(4-Fluorophenyl)methyl]-3,3-dimethyl-1H,2H,3H-pyrrolo[3,2-b]pyridin-1-yl}-2-oxoethyl)-5-methylpiperazin-2-yl]methyl}-4,4-dimethylpyrrolidin-2-one dihydrochloride] | 2.2 nM | < 1000 nM | 54% |  |  |  |
| C[C@@H]1CN(CC(=O)N2CC(C)(C)c3ncc(Cc4ccc(F)cc4)cc32)[C@@H](CN2CCC(C)(C)C2=O)CN1 [Example 4, 1-{[(2R,5R)-1-(2-{6-[(4-Fluorophenyl)methyl]-3,3-dimethyl-1H,2H,3H-pyrrolo[3,2-b]pyridin-1-yl}-2-oxoethyl)-5-methylpiperazin-2-yl]methyl}-3,3-dimethylpyrrolidin-2-one dihydrochloride] | 3 nM | < 1000 nM | 34% |  |  |  |
| C[C@@H]1CN(CC(=O)N2CC(C)(C)c3ncc(Cc4ccc(F)cc4)cc32)[C@@H](CN2CC(C)(C)OC2=O)CN1 [Example 5, 3-{[(2R,5R)-1-(2-{6-[(4-Fluorophenyl)methyl]-3,3-dimethyl-1H,2H,3H-pyrrolo[3,2-b]pyridin-1-yl}-2-oxoethyl)-5-methylpiperazin-2-yl]methyl}-5,5-dimethyl-1,3-oxazolidin-2-one dihydrochloride] | 6.2 nM | < 1000 nM | 44% |  |  |  |
| CC1CC(=O)N(C[C@H]2CN[C@H](C)CN2CC(=O)N2CC(C)(C)c3ncc(Cc4ccc(F)cc4)cc32)C1 (stereo partly drawn) [Example 6, 1-{[(2R,5R)-1-(2-{6-[(4-Fluorophenyl)methyl]-3,3-dimethyl-1H,2H,3H-pyrrolo[3,2-b]pyridin-1-yl}-2-oxoethyl)-5-methylpiperazin-2-yl]methyl}-4-methylpyrrolidin-2-one dihydrochloride] | 1.1 nM | < 1000 nM | 48% |  |  |  |
| C[C@@H]1CN(CC(=O)N2CC(C)(C)c3ncc(Cc4ccc(F)cc4)cc32)[C@@H](CN2CC3(COC3)CC2=O)CN1 [Example 12, 6-{[(2R,5R)-1-(2-{6-[(4-Fluorophenyl)methyl]-3,3-dimethyl-1H,2H,3H-pyrrolo[3,2-b]pyridin-1-yl}-2-oxoethyl)-5-methylpiperazin-2-yl]methyl}-2-oxa-6-azaspiro[3.4]octan-7-one L-lactate] | 7.1 nM | < 1000 nM | 42% |  |  |  |
| C[C@@H]1CN(CC(=O)N2CC(C)(C)c3ncc(Cc4ccc(F)cc4)cc32)[C@@H](CN2Cc3ccncc3C2=O)CN1 [Example 19, 2-{[(2R,5R)-1-(2-{6-[(4-Fluorophenyl)methyl]-3,3-dimethyl-1H,2H,3H-pyrrolo[3,2-b]pyridin-1-yl}-2-oxoethyl)-5-methylpiperazin-2-yl]methyl}-1H,2H,3H-pyrrolo[3,4-c]pyridin-3-one, dihydrochloride] | 2.4 nM | < 1000 nM | 64% |  |  |  |
| C[C@@H]1CN(CC(=O)N2CC(C)(C)c3cnc(Cc4ccc(F)cc4)cc32)[C@@H](CN2Cc3ncccc3C2=O)CN1 [Example 20, 6-{[(2R,5R)-1-(2-{6-[(4-Fluorophenyl)methyl]-3,3-dimethyl-1H,2H,3H-pyrrolo[3,2-c]pyridin-1-yl}-2-oxoethyl)-5-methylpiperazin-2-yl]methyl}-5H,6H,7H-pyrrolo[3,4-b]pyridin-5-one, dihydrochloride] |  |  | 76% |  | < 1000 nM | 92% at |
| C[C@@H]1CN(CC(=O)N2CC(C)(C)c3ncc(Cc4ccc(F)cc4)cc32)[C@@H](CN2CCCCC2=O)CN1 [Example 21, 1-{[(2R,5R)-1-(2-{6-[(4-Fluorophenyl)methyl]-3,3-dimethyl-1H,2H,3H-pyrrolo[3,2-b]pyridin-1-yl}-2-oxoethyl)-5-methylpiperazin-2-yl]methyl}piperidin-2-one, dihydrochloride] | 2.1 nM |  | 44% |  | < 1000 nM |  |
| CC1=C(C)C(=O)N(C[C@H]2CN[C@H](C)CN2CC(=O)N2CC(C)(C)c3ncc(Cc4ccc(F)cc4F)cc32)C1 [Example 24, 1-{[(2R,5R)-1-(2-{6-[(2,4-Difluorophenyl)methyl]-3,3-dimethyl-1H,2H,3H-pyrrolo[3,2-b]pyridin-1-yl}-2-oxoethyl)-5-methylpiperazin-2-yl]methyl}-3,4-dimethyl-2,5-dihydro-1H-pyrrol-2-one, dihydrochloride] | 1.7 nM | < 1000 nM | 72% |  |  |  |
